According to PubChem BioAssay AID2060903 (Molecular Pharmacology Branch, DTP, NCI, 2025):

Test system: 377384-186-R-J1-PDC complex spheroid viability
Assay: Anticancer human tumor 377384-186-R-J1-PDC patient-derived pancreatic carcinoma cell line growth inhibition [RAS]
Conditions: for IC50: curve of first compound; for viability, T/C: stronger effect = lower value; active = viability on the fitted dose curve at most 10% of control; inactive = the rest
Text: RAS pathway inhibitors in Combinations in Complex Spheroids
A high-throughput screen of multi-cell type tumor spheroids was designed to identify active combinations of RAS pathway inhibitors and targeted small molecules. Complex spheroids include a stromal component modeled by human endothelial cells (HUVEC) and fibroblasts modeled by human mesenchymal stem cells (MSCs). The concentration ranges selected for each drug and investigational agent were based upon clinically achievable concentrations if the clinical Cmax of the agent was known.
Compounds. The drugs and investigational agents: abemaciclib (NSC768073), cobimetinib (NSC768068), divarasib (GDC6063, NSC841802), docetaxel (NSC628503), GDC-1971 (RLY-1971, NSC841576), gemcitabine (NSC613327), inavolisib (NSC800729), ipatasertib (NSC767898), KB-0742 (NSC834161), MRTX-1133 (NSC836407), osimertinib (NSC779217), RMC-4630 (NSC839698), RMC-6236 (NSC851965), RMC-6291 (NSC852671), Ro-3306 (NSC812927), sapanisertib (NSC764658), SN-38 (NSC673596), staurosporine (NSC755774), SY5609 (NSC837396), and tovorafenib (DAY101, NSC766906), were obtained from the National Cancer Institute (NCI) Developmental Therapeutics Program Chemical Repository. The FDA-approved anticancer drug set is available from the NCI Developmental Therapeutics Program. […] The stock solutions were prepared in dimethyl sulfoxide (DMSO, Sigma-Aldrich, St. Louis, MO, cat. D2650) at 800-fold the tested concentration and stored at -70 degrees C prior to their use. All drugs and investigational agents were tested over a range starting from a high concentration at or near the clinical Cmax and decreasing in half-log increments. If the clinical Cmax for an agent had not been determined, the highest concentration tested was 10 microM.
Cell Culture. All cells were maintained in an incubator at 37 degrees C and 5% CO2 with 95% humidity. The PDC lines were cultured according to standard operating procedures established by the NCI PDMR. All PDCs were thawed and cultured in Matrigel-coated flasks prepared with a working solution of 1X Ham's F-12 nutrient mix, without supplementation (Invitrogen, Waltham, MA, cat. 11765054), 100 U/mL penicillin-streptomycin (Invitrogen, cat. 15140122), and 2.5% Matrigel (Corning Inc., Corning, NY, cat. 354248) for the first three passages. The 362531-283-R-J2-PDC and 782815-120-R-J1-PDC lines were cultured in 6C/Colon 1B media, which includes advanced DMEM/F-12 (Thermo Fisher Scientific, cat. 12634028), 10 mM HEPES (Thermo Fisher Scientific, cat. 15630080), 1X GlutaMAX supplement (Thermo Fisher Scientific, cat. 35050061), 0.1 mg/mL primocin (InvivoGen, San Diego, CA, cat. ant-pm-2), 10% defined fetal bovine serum, heat inactivated (HyClone Laboratories Inc., Logan, UT, cat. SH30070.03HI), 50% L-WRN conditioned media (ATCC, cat. CRL-3276), 1.25 mM N-Acetyl-L-cysteine (Sigma-Aldrich, cat. A9165), 10 mM nicotinamide (Sigma-Aldrich, cat. N0636), 1X B-27 supplement (Thermo Fisher Scientific, cat. 17504044), 1X N-2 supplement (Thermo Fisher Scientific, cat. 17502048), 50 ng/mL human EGF (Thermo Fisher Scientific, cat. PHG0311), and 10 microM Y-27632 dihydrochloride (Tocris Bioscience, cat. 1254). The K12877-001-R-J1-PDC line was cultured in 6I media, which includes all 6C/Colon 1B media plus 10 ng/mL human FGF-10 (PeproTech, cat. 100-26), 1 ng/mL human FGF-2 (PeproTech, cat. 100-18B), 1 µM prostaglandin E2 (Tocris Bioscience, cat. 2296), […] hydrocortisone (Sigma-Aldrich, cat. H4001), and […] bovine insulin (Sigma-Aldrich, cat. I6634). The K86415-001-R-J1-PDC line was cultured in 6D media, which includes all 6C/Colon 1B media components minus the L-WRN conditioned media. The 485176-168-R4-J1-PDC was cultured in PANC media, which includes all 6C/Colon 1B media plus 100 ng/mL human FGF-10 (PeproTech, cat. 100-26), 500 nM SB-431542 (Selleckchem, cat. S1067), and 10 nM gastrin (Tocris Bioscience, cat. 3006). […]
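Also: spheroids exposed to compounds for seven days before readout.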

CC1(C)CCC(Nc2ncc(C(F)(F)F)c(-c3c[nH]c4c(P(C)(C)=O)c(C#N)ccc34)n2)CN1 (configuration not stated) + CCn1c(-c2cccnc2C(C)OC)c2c3cc(ccc31)N1CCOC(CC(NC(=O)C(C(C)C)N(C)C(=O)C3(F)CCN(C(=O)C#CC(C)(C)N(C)C)CC3)C(=O)N3CCCC(N3)C(=O)OCC(C)(C)C2)C1
4.25 nM: IC50 (second compound 0.3 µM)
inactive: viability, T/C (second compound 0.000949 µM, first compound 0.000949 µM) 96% | viability, T/C (second compound 0.000949 µM, first compound 0.003 µM) 75.9% | viability, T/C (second compound 0.000949 µM, first compound 0.00949 µM) 36.1% | viability, T/C (second compound 0.000949 µM, first compound 0.03 µM) 30.8% | viability, T/C (second compound 0.000949 µM, first compound 0.0949 µM) 22.1% | viability, T/C (second compound 0.000949 µM, first compound 0.3 µM) 22.8% | viability, T/C (second compound 0.003 µM, first compound 0.000949 µM) 92.7% | viability, T/C (second compound 0.003 µM, first compound 0.003 µM) 82.8% | viability, T/C (second compound 0.003 µM, first compound 0.00949 µM) 37.5% | viability, T/C (second compound 0.003 µM, first compound 0.03 µM) 25.2% | viability, T/C (second compound 0.003 µM, first compound 0.0949 µM) 22.9% | viability, T/C (second compound 0.003 µM, first compound 0.3 µM) 20.3% | viability, T/C (second compound 0.00949 µM, first compound 0.000949 µM) 96.6% | viability, T/C (second compound 0.00949 µM, first compound 0.003 µM) 71.8% | viability, T/C (second compound 0.00949 µM, first compound 0.00949 µM) 37.8% | viability, T/C (second compound 0.00949 µM, first compound 0.03 µM) 23.5% | viability, T/C (second compound 0.00949 µM, first compound 0.0949 µM) 21.9% | viability, T/C (second compound 0.00949 µM, first compound 0.3 µM) 20.6% | viability, T/C (second compound 0.03 µM, first compound 0.000949 µM) 85.2% | viability, T/C (second compound 0.03 µM, first compound 0.003 µM) 73.4% | viability, T/C (second compound 0.03 µM, first compound 0.00949 µM) 35.3% | viability, T/C (second compound 0.03 µM, first compound 0.03 µM) 19.5% | viability, T/C (second compound 0.03 µM, first compound 0.0949 µM) 19.3% | viability, T/C (second compound 0.03 µM, first compound 0.3 µM) 16.3% | viability, T/C (second compound 0.0949 µM, first compound 0.000949 µM) 88.5% | viability, T/C (second compound 0.0949 µM, first compound 0.003 µM) 61.7% | viability, T/C (second compound 0.0949 µM, first compound 0.00949 µM) 26.1% | viability, T/C (second compound 0.0949 µM, first compound 0.03 µM) 19.4% | viability, T/C (second compound 0.0949 µM, first compound 0.0949 µM) 16.6% | viability, T/C (second compound 0.0949 µM, first compound 0.3 µM) 14.8% | viability, T/C (second compound 0.3 µM, first compound 0.000949 µM) 85.2% | viability, T/C (second compound 0.3 µM, first compound 0.003 µM) 61.6% | viability, T/C (second compound 0.3 µM, first compound 0.00949 µM) 23% | viability, T/C (second compound 0.3 µM, first compound 0.03 µM) 18.1% | viability, T/C (second compound 0.3 µM, first compound 0.0949 µM) 15.7% | viability, T/C (second compound 0.3 µM, first compound 0.3 µM) 13.4%
6.25 nM: IC50 (second compound 0.00949 µM)
6.94 nM: IC50 (second compound 0.003 µM)
6.49 nM: IC50 (second compound 0.000949 µM)
6.09 nM: IC50 (second compound 0.03 µM)
4.39 nM: IC50 (second compound 0.0949 µM)
